Measurements reported in patent US8450527B2, “Amine derivative compounds for treating ophthalmic diseases and disorders” (Acucela Inc., priority 2007, dated 2013).

Biological target: T1, isomerase (Mus musculus, UniProt Q91ZQ5)
T1 construct: The recovery of 11-cis-retinal after bleaching can be used to estimate the activity of isomerase in vivo; from tissue; host or cells: eye (RPE) of living CD-1 albino male mice
T1 sequence (Q91ZQ5 1-533): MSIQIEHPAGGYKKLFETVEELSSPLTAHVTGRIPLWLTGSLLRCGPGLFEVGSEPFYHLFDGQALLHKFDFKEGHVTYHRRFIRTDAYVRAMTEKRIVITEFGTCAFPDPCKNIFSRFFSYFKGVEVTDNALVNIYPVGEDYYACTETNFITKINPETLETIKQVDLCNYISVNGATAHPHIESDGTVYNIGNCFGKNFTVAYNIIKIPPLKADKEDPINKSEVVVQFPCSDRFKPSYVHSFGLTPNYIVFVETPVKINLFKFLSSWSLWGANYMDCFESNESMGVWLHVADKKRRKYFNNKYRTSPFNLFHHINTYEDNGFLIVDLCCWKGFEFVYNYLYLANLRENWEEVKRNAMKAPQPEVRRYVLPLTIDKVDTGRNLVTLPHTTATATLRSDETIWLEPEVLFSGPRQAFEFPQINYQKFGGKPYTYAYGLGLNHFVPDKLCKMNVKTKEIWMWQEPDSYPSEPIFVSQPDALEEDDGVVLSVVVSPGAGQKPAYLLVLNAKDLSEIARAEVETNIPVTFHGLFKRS
Experiment: In vivo murine isomerase assay (recovery of 11-cis-retinal after photobleaching)
Design: species or system CD-1 (albino) male mice
Conditions: for % Inhibition 1 mg/kg 4 h / % Inhibition 1 mg/kg 24 h / % Inhibition 5 mg/kg 4 h / % Inhibition 5 mg/kg 24 h: CD1 male mice; for % Inhibition 1 mg/kg 4 h / % Inhibition 1 mg/kg 24 h: single oral dose 1 mg/kg; for % Inhibition 1 mg/kg 4 h / % Inhibition 5 mg/kg 4 h: photobleaching 4 h post dosing; for % Inhibition 1 mg/kg 24 h / % Inhibition 5 mg/kg 24 h: photobleaching 24 h post dosing; for % Inhibition 5 mg/kg 4 h / % Inhibition 5 mg/kg 24 h: single oral dose 5 mg/kg; for ED50: mouse, po, read-out: ED50 (dose of compound that gives 50% inhibition of 11-cis retinal (oxime) recovery), CD-1 male mice, oral gavage, photobleached 4 hours after dosing
Procedure: The capability of amine derivative compounds to inhibit isomerase was determined by an in vivo murine isomerase assay. Brief exposure of the eye to intense light (“photobleaching” of the visual pigment or simply “bleaching”) is known to photo-isomerize almost all 11-cis-retinal in the retina. The recovery of 11-cis-retinal after bleaching can be used to estimate the activity of isomerase in vivo.
Delayed recovery, as represented by lower 11-cis-retinal oxime levels, indicates inhibition of isomerization reaction. Procedures were performed essentially as described by Golczak et al., Proc. Natl. Acad. Sci. USA 102:8162-67 (2005). See also Deigner et al., Science, 244: 968-71 (1989); Gollapalli et al., Biochim Biophys Acta. 1651: 93-101 (2003); Parish, et al., Proc. Natl. Acad. Sci. USA, 14609-13 (1998); Radu, et al., Proc Natl Acad Sci USA 101: 5928-33 (2004).
[…] Mice were orally gavaged with the several of the amine derivative compounds described herein. After 1-48 hours in the dark, the mice were exposed to photobleaching of 5,000 lux of white light for 10 minutes. The mice were allowed to recover 2 hours in the dark. The animals were then sacrificed by carbon dioxide inhalation. Retinoids were extracted from the eye and the regeneration of 11-cis-retinal was assessed at various time intervals.
All steps were performed in darkness with minimal redlight illumination (low light darkroom lights and redfiltered flashlights for spot illumination as needed) (see, e.g., Maeda et al., J. Neurochem 85:944-956, 2003; Van Hooser et al., J Biol Chem 277:19173-82, 2002). After the mice were sacrificed, the eyes were immediately removed and placed in liquid nitrogen for storage.
The eyes were placed in 500 μL of bis-tris propane buffer (10 mM, pH ˜7.3) and 20 μL of 0.8M hydroxylamine (pH˜7.3). The eyes were cut up into small pieces with small iris scissors and then thoroughly homogenized at 30000 rpm with a mechanical homogenizer (Polytron PT 1300 D) in the tube until no visible tissue remained. 500 μL of methanol and 500 μL of heptane were added to each tube. The tubes were attached to a vortexer so that the contents were mixed thoroughly for 15 minutes in room temperature. The organic phase was separated from the aqueous phase by centrifugation for 10 min at 13K rpm, 4° C. 240 μL of the solution from the top layer (organic phase) was removed and transferred to clean 300 μl glass inserts in HPLC vials using glass pipette and the vials were crimped shut tightly.
The samples were analyzed on an Agilent 1100 HPLC system with normal phase column: SILICA (Beckman Coutlier, dp 5 μm, […]). The running method has a flow rate of 1.5 ml/min; solvent components are 15% solvent 1 (1% isopropanol in ethyl acetate), and 85% solvent 2 (100% hexanes). Loading volume for each sample is 100 μl; detection wavelength is 360 nm. The area under the curve for 11-cis retinal oxime was calculated by Agilent Chemstation software and was recorded manually. Data processing was performed using Prizm software.
Positive control mice (no compound administered) were sacrificed fully dark-adapted and the eye retinoids analyzed. Light (bleached) control mice (no compound administered) were sacrificed and retinoids isolated and analyzed immediately after light treatment. The animals were orally gavaged with 1 mg/kg compound, then “photo-bleached” (5000 Lux white light for 10 minutes) at 4, 24 and 48 hours after dosing, and returned to darkness to allow recovery of the 11-cis-retinal content of the eyes. Mice were sacrificed 2 hours after bleaching, eyes were enucleated, and retinoid content was analyzed by HPLC.
A dose response in vivo isomerase inhibition study was performed with several of the amine derivative compounds described herein. Six-week old dark-adapted CD-1 (albino) male mice were orally gavaged with 0.03, 0.1, 0.3, 1 and 3 mg/kg of compound in sterile water as solution, and photobleached 4 hours after dosing. […]

% Inhibition 1 mg/kg 4 h	% Inhibition 1 mg/kg 24 h	SMILES	also measured
36%	13%	CCCC(O)(CCC)CCc1cccc(CCCN)c1 [Example 3, 4-(3-(3-aminopropyl)phenethyl)heptan-4-ol]	% Inhibition 5 mg/kg 4 h: 95%; % Inhibition 5 mg/kg 24 h: 0%; ED50 (estimated): 2 mg/kg
23%	12%	NCCCc1cccc(CCC2(O)CCCCC2)c1 [Example 7, 1-(3-(3-aminopropyl)phenethyl)cyclohexanol]	
12%	6%	CCCC(O)(CCC)CCc1cccc(OCCN)c1 [Example 9, 4-(3-(2-aminoethoxy)phenethyl)heptan-4-ol]	
9%	1%	NCCOc1cccc(CCC2(O)CCCCCC2)c1 [Example 10, 1-(3-(2-aminoethoxy)phenethyl)cycloheptanol]	
0%	0%	NCCOc1cccc(CCC2(O)CCSCC2)c1 [Example 11, 4-(3-(2-aminoethoxy)phenethyl)tetrahydro-2H-thiopyran-4-ol]	
27%	12%	NCCOc1cccc(CCC2(O)CCCCC2)c1 [Example 12, 1-(3-(2-aminoethoxy)phenethyl)cyclohexanol]	
		NCCC(O)c1cccc(CCC2(O)CCCCC2)c1 (stereo not drawn) [Example 15, 1-(3-(3-amino-1-hydroxypropyl)phenethyl)cyclohexanol]	ED50 (estimated): 2 mg/kg
6%	0%	NCCC(O)c1cccc(CCC2(O)CCCCCC2)c1 (stereo not drawn) [Example 16, 1-(3-(3-amino-1-hydroxypropyl)phenethyl)cycloheptanol]	
84%	0%	NCCC(O)c1cccc(CCC2CCCC2)c1 (stereo not drawn) [Example 17, 3-amino-1-(3-(2-cyclopentylethyl)phenyl)propan-1-ol]	
		CCCC(O)(CCC)CCc1cccc(C(O)CCN)c1 (stereo not drawn) [Example 19, 4-(3-(3-amino-1-hydroxypropyl)phenethyl)heptan-4-ol]	Inhibition of recovery of 11-cis retinal (oxime), dose dependence (0.03-3 mg/kg oral, 4 hours post dosing): dose related; ED50 (dose of compound that gives 50% inhibition of 11-cis retinal (oxime) recovery) (CD-1 male mice, oral gavage, photobleached 4 hours after dosing, estimated): 0.65 mg/kg; ED50 (estimated): 0.651 mg/kg
0%	2%	NCCCc1cccc(CCC2(O)CCCCCC2)c1 [Example 20, 1-(3-(3-aminopropyl)phenethyl)cycloheptanol]	
6%	29%	CCCCCc1cccc(CCCN)c1 [Example 27, 3-(3-pentylphenyl)propan-1-amine]	
0%	0%	CC(C)(C)CCc1cccc(CCCN)c1 [Example 29, 3-(3-(3,3-dimethylbutyl)phenyl)propan-1-amine]	% Inhibition 5 mg/kg 4 h: 62%; % Inhibition 5 mg/kg 24 h: 0%; ED50 (estimated): 4 mg/kg
0%		NCCCc1cccc(CCCCc2ccccc2)c1 [Example 35, 3-(3-(4-phenylbutyl)phenyl)propan-1-amine]	
